Test results as given in patent US10696688B2, “Fused pyrimidines as isoform selective phosphoinositide-3-kinase-alpha inhibitors and process for preparation thereof” (Council of Scientific and Industrial Research, priority 2015, dated 2020).
Converted amounts (≈) assume the structure as drawn. “And” between values parts separate entries of the source, which are not always exact repeats. Equal values may be shown once. Read-outs that look alike come from different tables or passages of the source.

What was measured:
[1] = test system: Ehrlich ascites carcinoma (EAC) cells; assay: In-vivo activity in Ehrlich solid tumor model; set-up: species or system swiss mice; conditions: 22 at 25 mg/kg i.p., 5-fluorouracil at 22 mg/kg i.p., day 1-9; for Day 13 % Tumor Growth Inhibition: day 13, versus saline control
[2] = dead/total animals; 22 at 25 mg/kg i.p., 5-fluorouracil at 22 mg/kg i.p., day 1-9
[3] = Thermodynamic aqueous solubility, 96-well plate protocol; format: physicochemical; conditions: for solubility: 25 °C, pH 7, water, thermodynamic from solid
Description: The thermodyanamic aqueous solubility was determined using 96-plate plate protocol (Bharate, S. S. and Vishwakarma, R. A. 2015, Bioorg. Med. Chem. Lett. 25, 1561-1567). […] Briefly, the compounds were loaded into 96-well plate in the form of methanolic solution, followed by evaporation of solvent to get 1, 2, 4, 8, 16, 25, 40, 80, 160 and 300 μg of compound in solid form in wells. Thereafter, 200 μl of dissolution medium was added to the wells and plates were shaken horizontally at 300 rpm for 4 h at room temperature (25±1° C.). The plates were covered with aluminium foil and were kept overnight at room temperature for equilibration. Later, the plates were centrifuged at 3000 rpm for 15 min (Jouan centrifuge BR4i). Supernatant (50 μl) was withdrawn into UV 96-well plates (Corning® 96 Well Clear Hat Bottom UV-Transparent Microplate) for analyses with microplate reader (Molecular Devices, USA) at corresponding λmax of the sample. The analysis was performed in triplicate for each compound. The solubility curve of concentration (μg/mL) vs absorbance was plotted to find out saturation point and the corresponding concentration was noted.

[4] = target: PI3K-alpha (Homo sapiens, UniProt P42336); assay: PI3K-α assay (ADP-Glo); format: biochemical; conditions: for inhibition at 0.5 µM / % PI3Kα inhibition at 500 nM: at 500 nM (0.5 μM), NI = no inhibition at tested concentration; for inhibition at 0.5 µM: read-out: % PI3Kα inhibition at 500 nM; for % PI3Kα inhibition at 500 nM: 0.5 µM
Description: Compounds proposed in present invention were evaluated for their inhibitory activity on phosphoinositide-3-kinase-α and other isoforms (β, γ and δ). The preliminary screening was performed at 0.5 μM. The protocols used for these bioassays are as follows:
PI3K-alpha (diluted in 12.5 mM Glycine-NaOH (pH 8.5), 50 mM KCl, 2.5 mM MgCl2, 1 mM DTT, 0.05% CHAPS) is assayed in total volume of 20 μl containing 12.5 mM glycine-NaOH (pH 8.5), 50 mM KCl, 2.5 mM MgCl2, 1 mM DTT, 0.05% CHAPS, 0.01 mM ATP and 0.05 mM diC8 PIP2. The enzyme is assayed for 80 min after which 20 μl of ADP-Glo reagent is added. After a further incubation of 40 min, 40 μl of Kinase Detection Buffer is added. The assays are incubated for 40 min and then read on PerkinElmer Envision for 1 sec/well.

[5] = test system: MDA-MB-231 (breast cancer); assay: Cytotoxicity, MTT assay; format: cell-based; conditions: Homo sapiens, 48 h treatment
Description: (§1) Selected compounds proposed in the present invention were evaluated for their cytotoxic effect against panel of 3 cancer cell line viz. MIAPaCa-2 (pancreatic cancer), A-549 (lung cancer), and MDA-MB-231 (breast cancer) using MTT assay. In each well of a 96-well plate, 3×10^3 cells were grown in 100 μL of medium. After 24 h, each test molecules were added to achieve a final concentration of 10 to 0.01 μmol/L, respectively. After 48 h of treatment, 20 μL of 2.5 mg/mL MTT (Organics Research, Inc.) solution in phosphate buffer saline was added to each well. […], supernatant was removed and formazan crystals were dissolved in 200 μL of DMSO. Absorbance was then measured at 570 nm using an absorbance plate reader (Bio-Rad Microplate Reader). Data are expressed as the percentage of viable cells in treated relative to non-treated conditions. Each experiment was repeated thrice and data was expressed as mean±SD of three independent experiments (Mordant, P. et al., Mol. Cancer Ther. 2010, 9, 358).

[6] = test system: A-549 (lung cancer); assay: Cytotoxicity, MTT assay; format: cell-based; conditions: Homo sapiens, A549, 48 h treatment
Description: as §1

[7] = test system: MIAPaCa-2 (pancreatic cancer); assay: Cytotoxicity, MTT assay; format: cell-based; conditions: Homo sapiens, MIA PaCa-2, 48 h treatment
Description: as §1

[8] = target: PI3K-gamma (Homo sapiens, UniProt P48736); assay: PI3K-γ assay (ADP-Glo); format: biochemical
[9] = target: PI3K-delta (Homo sapiens, UniProt O00329); assay: PI3K-δ assay (ADP-Glo); format: biochemical
[10] = target: PI3K-beta (Homo sapiens, UniProt P42338); assay: PI3K-β assay (ADP-Glo); format: biochemical
[11] = via glucuronidation of phenolic hydroxyl group; cited from earlier work
[12] = water (aqueous, pH 7), pH = 7, read-out: Aqueous Solubility (μg/ml) at pH = 7
[13] = water, pH = 7, read-out: Aqueous Solubility (μg/ml) at pH = 7
[14] = water, in H2O at pH = 7, read-out: Solubility μg/ml in H2O at pH = 7

PI3K-beta, sequence (P42338 whole entry): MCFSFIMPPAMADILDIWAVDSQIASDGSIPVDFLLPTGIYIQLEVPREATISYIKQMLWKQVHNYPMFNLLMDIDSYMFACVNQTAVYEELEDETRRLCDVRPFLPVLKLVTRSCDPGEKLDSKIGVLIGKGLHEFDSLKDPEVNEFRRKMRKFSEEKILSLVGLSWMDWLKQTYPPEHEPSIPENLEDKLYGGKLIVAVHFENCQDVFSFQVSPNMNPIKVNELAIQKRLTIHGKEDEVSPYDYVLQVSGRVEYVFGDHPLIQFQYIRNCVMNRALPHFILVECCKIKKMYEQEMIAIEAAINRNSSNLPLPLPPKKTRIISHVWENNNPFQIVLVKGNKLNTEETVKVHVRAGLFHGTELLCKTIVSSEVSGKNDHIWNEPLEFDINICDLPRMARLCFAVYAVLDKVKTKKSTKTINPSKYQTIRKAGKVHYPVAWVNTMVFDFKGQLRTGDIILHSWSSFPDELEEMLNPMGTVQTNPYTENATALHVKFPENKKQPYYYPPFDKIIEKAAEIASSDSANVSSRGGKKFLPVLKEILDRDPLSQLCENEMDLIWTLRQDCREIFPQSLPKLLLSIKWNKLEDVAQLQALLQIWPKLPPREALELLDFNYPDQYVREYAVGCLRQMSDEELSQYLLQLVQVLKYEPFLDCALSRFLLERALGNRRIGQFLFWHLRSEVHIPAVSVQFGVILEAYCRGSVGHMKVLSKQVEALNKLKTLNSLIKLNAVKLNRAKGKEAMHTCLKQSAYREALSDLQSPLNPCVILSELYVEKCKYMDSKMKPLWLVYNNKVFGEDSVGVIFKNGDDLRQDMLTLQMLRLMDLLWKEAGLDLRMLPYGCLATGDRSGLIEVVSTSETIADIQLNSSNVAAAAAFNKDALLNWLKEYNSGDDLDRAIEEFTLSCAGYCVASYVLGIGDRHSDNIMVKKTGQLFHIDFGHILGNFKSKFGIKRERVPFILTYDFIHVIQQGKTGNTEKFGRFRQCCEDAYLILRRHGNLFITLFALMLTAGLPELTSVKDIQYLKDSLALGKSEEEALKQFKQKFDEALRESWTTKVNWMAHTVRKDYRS
PI3K-beta, sequence (P27986 whole entry partner): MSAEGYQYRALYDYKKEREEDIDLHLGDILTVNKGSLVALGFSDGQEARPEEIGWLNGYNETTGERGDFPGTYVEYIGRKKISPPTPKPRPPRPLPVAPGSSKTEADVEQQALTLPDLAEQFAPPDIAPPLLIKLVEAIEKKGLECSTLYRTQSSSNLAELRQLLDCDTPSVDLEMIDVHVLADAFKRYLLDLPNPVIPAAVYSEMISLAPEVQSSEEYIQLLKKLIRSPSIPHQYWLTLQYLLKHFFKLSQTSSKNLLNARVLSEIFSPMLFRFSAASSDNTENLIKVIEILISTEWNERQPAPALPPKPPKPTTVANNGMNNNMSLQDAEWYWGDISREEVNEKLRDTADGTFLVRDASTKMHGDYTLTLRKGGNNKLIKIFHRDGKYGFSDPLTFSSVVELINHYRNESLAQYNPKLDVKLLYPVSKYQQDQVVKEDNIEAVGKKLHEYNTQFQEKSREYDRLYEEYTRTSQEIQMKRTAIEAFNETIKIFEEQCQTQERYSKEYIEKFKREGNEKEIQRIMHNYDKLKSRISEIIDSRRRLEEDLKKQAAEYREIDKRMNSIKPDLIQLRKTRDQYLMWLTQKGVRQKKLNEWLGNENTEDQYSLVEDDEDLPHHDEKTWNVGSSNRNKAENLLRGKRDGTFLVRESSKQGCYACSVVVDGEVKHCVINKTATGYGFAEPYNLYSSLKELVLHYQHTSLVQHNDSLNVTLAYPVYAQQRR
PI3K-gamma, sequence (P48736 whole entry): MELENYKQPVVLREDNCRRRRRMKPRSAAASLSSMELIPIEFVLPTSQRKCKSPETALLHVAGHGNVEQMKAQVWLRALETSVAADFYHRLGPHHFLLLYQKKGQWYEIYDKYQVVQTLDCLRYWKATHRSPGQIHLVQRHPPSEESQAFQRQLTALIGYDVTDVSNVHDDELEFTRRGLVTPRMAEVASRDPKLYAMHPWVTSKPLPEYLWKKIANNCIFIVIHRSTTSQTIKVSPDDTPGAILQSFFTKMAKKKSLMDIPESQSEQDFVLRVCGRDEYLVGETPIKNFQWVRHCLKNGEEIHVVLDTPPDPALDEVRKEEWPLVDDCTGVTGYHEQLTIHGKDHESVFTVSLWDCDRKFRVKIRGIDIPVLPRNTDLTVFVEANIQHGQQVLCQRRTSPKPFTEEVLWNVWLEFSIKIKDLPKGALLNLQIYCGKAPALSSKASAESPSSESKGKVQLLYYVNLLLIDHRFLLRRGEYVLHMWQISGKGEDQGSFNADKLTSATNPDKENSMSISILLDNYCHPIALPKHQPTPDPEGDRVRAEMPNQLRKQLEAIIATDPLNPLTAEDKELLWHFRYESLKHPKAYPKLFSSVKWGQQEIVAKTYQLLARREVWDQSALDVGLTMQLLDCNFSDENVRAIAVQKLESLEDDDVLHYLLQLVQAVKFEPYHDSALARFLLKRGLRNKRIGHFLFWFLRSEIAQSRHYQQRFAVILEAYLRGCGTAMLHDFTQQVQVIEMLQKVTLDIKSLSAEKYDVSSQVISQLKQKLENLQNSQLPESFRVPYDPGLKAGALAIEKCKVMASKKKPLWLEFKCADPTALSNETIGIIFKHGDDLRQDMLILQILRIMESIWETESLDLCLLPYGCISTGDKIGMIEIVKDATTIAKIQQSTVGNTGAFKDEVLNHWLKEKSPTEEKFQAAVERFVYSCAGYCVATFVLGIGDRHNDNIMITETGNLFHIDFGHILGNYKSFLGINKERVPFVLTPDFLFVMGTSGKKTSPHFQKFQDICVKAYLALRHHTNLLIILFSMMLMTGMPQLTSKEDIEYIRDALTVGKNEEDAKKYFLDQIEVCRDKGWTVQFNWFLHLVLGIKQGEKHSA
PI3K-delta, sequence (O00329 whole entry): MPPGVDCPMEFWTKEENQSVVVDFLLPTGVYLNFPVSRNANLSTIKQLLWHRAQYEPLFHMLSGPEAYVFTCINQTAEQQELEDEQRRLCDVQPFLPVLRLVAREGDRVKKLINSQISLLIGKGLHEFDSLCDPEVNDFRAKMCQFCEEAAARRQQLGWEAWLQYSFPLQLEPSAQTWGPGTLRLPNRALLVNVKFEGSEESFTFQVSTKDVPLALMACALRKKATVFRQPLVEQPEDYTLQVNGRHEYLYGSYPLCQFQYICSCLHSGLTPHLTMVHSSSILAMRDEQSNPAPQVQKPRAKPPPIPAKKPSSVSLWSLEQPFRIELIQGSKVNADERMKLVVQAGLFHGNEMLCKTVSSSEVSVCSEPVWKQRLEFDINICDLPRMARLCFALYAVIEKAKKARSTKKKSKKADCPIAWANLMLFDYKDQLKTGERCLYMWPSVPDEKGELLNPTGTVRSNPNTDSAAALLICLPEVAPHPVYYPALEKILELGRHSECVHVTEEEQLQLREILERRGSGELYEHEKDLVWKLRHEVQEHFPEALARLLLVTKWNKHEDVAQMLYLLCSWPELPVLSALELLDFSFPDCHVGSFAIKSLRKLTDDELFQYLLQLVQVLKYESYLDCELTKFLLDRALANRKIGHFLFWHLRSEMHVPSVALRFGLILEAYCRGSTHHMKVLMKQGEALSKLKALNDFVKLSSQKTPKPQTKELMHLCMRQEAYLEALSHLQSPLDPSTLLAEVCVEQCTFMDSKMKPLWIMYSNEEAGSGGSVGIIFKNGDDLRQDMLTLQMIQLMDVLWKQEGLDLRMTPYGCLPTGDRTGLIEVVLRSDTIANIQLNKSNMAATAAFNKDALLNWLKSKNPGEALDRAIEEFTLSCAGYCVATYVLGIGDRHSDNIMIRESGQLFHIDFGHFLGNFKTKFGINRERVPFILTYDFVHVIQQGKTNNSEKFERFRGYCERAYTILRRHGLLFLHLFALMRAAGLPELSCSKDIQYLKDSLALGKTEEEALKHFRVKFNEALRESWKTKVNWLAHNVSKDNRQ
PI3K-delta, sequence (P27986 whole entry partner): as the sequence (P27986 whole entry partner) above
PI3K-alpha, sequence (P42336 whole entry, canonical isoform): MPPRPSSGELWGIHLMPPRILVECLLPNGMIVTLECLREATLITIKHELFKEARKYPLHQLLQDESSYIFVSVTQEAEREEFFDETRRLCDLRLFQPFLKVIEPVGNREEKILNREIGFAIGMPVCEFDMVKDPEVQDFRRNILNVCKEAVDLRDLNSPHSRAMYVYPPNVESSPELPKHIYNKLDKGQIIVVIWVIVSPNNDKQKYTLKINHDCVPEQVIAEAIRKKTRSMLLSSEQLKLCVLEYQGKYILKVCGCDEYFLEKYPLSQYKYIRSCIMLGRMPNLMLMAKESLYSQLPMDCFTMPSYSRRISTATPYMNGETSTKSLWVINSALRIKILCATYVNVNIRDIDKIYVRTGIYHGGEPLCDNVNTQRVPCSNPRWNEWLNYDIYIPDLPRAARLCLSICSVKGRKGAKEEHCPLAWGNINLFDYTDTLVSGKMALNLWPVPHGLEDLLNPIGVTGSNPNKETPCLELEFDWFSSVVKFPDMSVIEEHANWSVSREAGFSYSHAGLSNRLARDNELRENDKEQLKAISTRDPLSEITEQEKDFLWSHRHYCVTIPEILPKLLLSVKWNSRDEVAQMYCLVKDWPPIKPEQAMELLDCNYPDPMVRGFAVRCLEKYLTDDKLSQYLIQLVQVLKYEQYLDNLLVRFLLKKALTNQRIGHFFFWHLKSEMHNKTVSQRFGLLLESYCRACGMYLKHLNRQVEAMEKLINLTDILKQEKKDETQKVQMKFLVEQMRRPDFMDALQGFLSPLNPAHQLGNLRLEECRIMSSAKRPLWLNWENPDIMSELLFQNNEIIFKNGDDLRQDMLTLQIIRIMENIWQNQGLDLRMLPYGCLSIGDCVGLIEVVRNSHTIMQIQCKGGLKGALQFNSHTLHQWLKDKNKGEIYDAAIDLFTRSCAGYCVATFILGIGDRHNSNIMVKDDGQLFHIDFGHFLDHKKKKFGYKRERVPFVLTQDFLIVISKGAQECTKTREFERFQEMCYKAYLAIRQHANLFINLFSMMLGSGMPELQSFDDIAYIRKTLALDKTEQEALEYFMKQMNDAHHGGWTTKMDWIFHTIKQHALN
PI3K-alpha, sequence (P27986 whole entry partner, canonical isoform): as the sequence (P27986 whole entry partner) above

O=c1[nH]cc(F)c(=O)[nH]1 [5-Fluorouracil, reference compound]
Day 13 % Tumor Growth Inhibition [1]: 50.04% | Day 13 Avg. tumor weights [1]: 929.42 mg | Mortality [2]: 0/7

CC(C)(C)OC(=O)NC1CCN(c2nc(N3CCOCC3)c3oc4ncccc4c3n2)CC1 [Compound 6, tert-butyl (1-(4-morpholinopyrido [3′,2′:4,5]furo[3,2-d]pyrimidin-2-yl)piperidin-4-yl)carbamate]
solubility [3, 12]: 10 µg/mL (≈ 22 µM) | inhibition at 0.5 µM [4]: 67.3%

CCOC(=O)c1ccc(NC(=O)NC2CCN(c3nc(N4CCOCC4)c4oc5ncccc5c4n3)CC2)cc1 [Compound 8, ethyl 4-(3-(1-(4-morpholinopyrido[3′,2′:4,5]furo[3,2-d]pyrimidin-2-yl)piperidin-4-yl)ureido)benzoate]
solubility [3, 12]: 10 µg/mL (≈ 18.3 µM) | % PI3Kα inhibition at 500 nM [4]: 85% | inhibition at 0.5 µM [4]: > 70% | IC50 ([4]; read-out: IC50 for PI3K (μM) PI3K-α): 0.008 µM | IC50 [5]: 8 µM | IC50 [6]: 8 µM | IC50 [7]: 8 µM

CN1CCN(C(=O)c2ccc(NC(=O)NC3CCN(c4nc(N5CCOCC5)c5oc6ncccc6c5n4)CC3)cc2)CC1 [Compound 10, 1-(4-(4-methylpiperazine-1-carbonyl)phenyl)-3-(1-(4-morpholinopyrido[3′,2′:4,5]furo[3,2-d]pyrimidin-2-yl)piperidin-4-yl)urea]
Aqueous Solubility (μg/ml) at pH = 7 ([3]; pH = 7): 400 μg/ml | solubility [3, 13]: > 200 µg/mL | % PI3Kα inhibition at 500 nM [4]: 76.8% | inhibition at 0.5 µM [4]: > 70% | IC50 ([4]; read-out: IC50 for PI3Kα): 0.08 µM | IC50 [5]: 40 µM | IC50 [6]: 9 µM | IC50 [7]: 8 µM

CC(C)(C)OC(=O)NC1CCN(c2nc(N3CCOCC3)c3sccc3n2)CC1 [Compound 16, tert-butyl (1-(4-morpholino thieno[3,2-d]pyrimidin-2-yl)piperidin-4-yl)carbamate]
inhibition at 0.5 µM [4]: < 0%

CC(C)(C)OC(=O)NC1CCN(c2nc(N3CCOCC3)c3sc(C(C)(C)O)cc3n2)CC1 [Compound 17, tert-butyl (1-(6-(2-hydroxypropan-2-yl)-4-morpholinothieno[3,2-d]pyrimidin-2-yl)piperidin-4-yl)carbamate]
solubility [3, 12]: 200 µg/mL (≈ 419 µM) | solubility [3, 13]: > 200 µg/mL | % PI3Kα inhibition at 500 nM [4]: 81% | inhibition at 0.5 µM [4]: > 70%

CCOC(=O)c1ccc(NC(=O)NC2CCN(c3nc(N4CCOCC4)c4sccc4n3)CC2)cc1 [Compound 21, ethyl 4-(3-(1-(4-morpholinothieno[3,2-d]pyrimidin-2-yl)piperidin-4-yl)ureido)benzoate]
solubility [3, 12]: 120 µg/mL (≈ 235 µM) | inhibition at 0.5 µM [4]: 59%

CCc1ccc(NC(=O)NC2CCN(c3nc(N4CCOCC4)c4sccc4n3)CC2)cc1 [Compound 22, 1-(4-ethylphenyl)-3-(1-(4-morpholinothieno[3,2-d]pyrimidin-2-yl)piperidin-4-yl)urea]
IC50 [8]: > 20 µM | Fold-selectivity for PI3K-α with respect to other isoforms PI3K-γ ([8]; PI3K-α versus PI3K-γ): >500 fold | % inhibition of PI3K-γ ([8]; up to 20 μM): 0% | solubility [3, 14]: 800 µg/mL (≈ 1710 µM) | Fold-selectivity for PI3K-α with respect to other isoforms PI3K-δ [9]: >500 fold | IC50 [9]: > 20 µM | % inhibition of PI3K-δ ([9]; up to 20 μM): 0% | IC50 [10]: > 20 µM | Fold-selectivity for PI3K-α with respect to other isoforms PI3K-β ([10]; PI3K-α versus PI3K-β): >500 fold | % inhibition of PI3K-β ([10]; up to 20 μM): 0% | inhibition at 0.5 µM [4]: 74% | IC50 ([4]; read-out: IC50 for PI3Kα): 0.04 µM | IC50 [5]: 4 µM | IC50 [6]: 7 µM | IC50 [7]: 5 µM | Day 13 % Tumor Growth Inhibition [1]: 32.7% and 32.73% | Day 13 Avg. tumor weights [1]: 1128.4 mg

Cc1ccccc1NC(=O)NC1CCN(c2nc(N3CCOCC3)c3sccc3n2)CC1 [Compound 23, 1-(1-(4-morpholinothieno[3,2-d]pyrimidin-2-yl)piperidin-4-yl)-3-(o-tolyl)urea]
solubility [3, 12]: 20 µg/mL (≈ 44.2 µM) | inhibition at 0.5 µM [4]: 68%

O=C(Nc1ccc(C(F)(F)F)cc1)NC1CCN(c2nc(N3CCOCC3)c3sccc3n2)CC1 [Compound 24, 1-(1-(4-morpholinothieno[3,2-d]pyrimidin-2-yl)piperidin-4-yl)-3-(4-(trifluoromethyl)phenyl)urea]
% PI3Kα inhibition at 500 nM [4]: 70% | inhibition at 0.5 µM [4]: > 70% | IC50 [5]: 8 µM | IC50 [6]: 13 µM | IC50 [7]: 9 µM

O=C(Nc1ccccc1F)NC1CCN(c2nc(N3CCOCC3)c3sccc3n2)CC1 [Compound 25, 1-(2-fluorophenyl)-3-(1-(4-morpholinothieno[3,2-d]pyrimidin-2-yl)piperidin-4-yl)urea]
solubility [3, 12]: 200 µg/mL (≈ 438 µM) | solubility [3, 13]: > 200 µg/mL | % PI3Kα inhibition at 500 nM [4]: 76% | inhibition at 0.5 µM [4]: > 70%

CCOC(=O)c1ccc(NC(=O)NC2CCN(c3nc(N4CCOCC4)c4sc(C(C)(C)O)cc4n3)CC2)cc1 [Compound 26, ethyl 4-(3-(1-(6-(2-hydroxypropan-2-yl)-4-morpholinothieno[3,2-d]pyrimidin-2-yl)piperidin-4-yl)ureido)benzoate]
inhibition at 0.5 µM [4]: 40%

COc1ccc(S(=O)(=O)NC2CCN(c3nc(N4CCOCC4)c4sccc4n3)CC2)cc1 [Compound 27, 4-methoxy-N-(1-(4-morpholinothieno[3,2-d]pyrimidin-2-yl)piperidin-4-yl)benzenesulfonamide]
inhibition at 0.5 µM [4]: 33%

CC(C)(C)c1ccc(S(=O)(=O)NC2CCN(c3nc(N4CCOCC4)c4sccc4n3)CC2)cc1 [Compound 28, 4-(tert-butyl)-N-(1-(4-morpholinothieno[3,2-d]pyrimidin-2-yl)piperidin-4-yl)benzenesulfonamide]
solubility [3, 12]: 20 µg/mL (≈ 38.8 µM) | inhibition at 0.5 µM [4]: 56%

O=S(=O)(NC1CCN(c2nc(N3CCOCC3)c3sccc3n2)CC1)c1ccc2ccccc2c1 [Compound 30, N-(1-(4-morpholinothieno [3,2-d]pyrimidin-2-yl)piperidin-4-yl)naphthalene-2-sulfonamide]
solubility [3, 12]: 5 µg/mL (≈ 9.81 µM) | inhibition at 0.5 µM [4]: 54.8%

CS(=O)(=O)N1CCN(Cc2cc3nc(-c4cccc5[nH]ncc45)nc(N4CCOCC4)c3s2)CC1 [GDC-0941, reference compound]
solubility [3, 14]: 16 µg/mL (≈ 31.1 µM)

Oc1cccc(-c2nc(N3CCOCC3)c3oc4ncccc4c3n2)c1 [PI-103, reference compound]
metabolism [11]: rapid metabolism | solubility [3, 14]: 5 µg/mL (≈ 14.4 µM)
